The values that follow come from patent publication US12508280B2, “Formulations for improving gut health” (DSM IP ASSETS B.V., priority 2018, dated 2025).

The subject of experiment [1] is Bifidobacterium. Kind of experiment: Microbiome composition by shotgun sequencing: Bifidobacterium (first set). In kind it is cell-based, human. To be noted: after 24 h fermentation, vs corresponding control. The method, then:
(§1) Since ethanol is known to have antimicrobial effects, two blanks for each type of stock solution were included. As a source of the microbial community, a freshly prepared fecal suspension from the selected donor was added to the reactors. […] All tests, except the blanks, were performed in single repetition, resulting in 40 independent incubations, as specified in Table 1. Incubation conditions of the pre-screening experiment and the final experiment were 48 h at 37° C., under shaking (90 rpm) and anaerobic conditions. DNA were extracted from effluent samples collected from each fermentation flask before (0 h fermentation) and after fermentation (24 h fermentation) and use for microbiome composition analysis by Shotgun sequencing. Effluent samples were collected from each fermentation flask before (0 h fermentation) and after fermentation (48 h fermentation), sterilized by filtering through 0.22 μm filters and used for short chain fatty acids (SCFA), quantification of immunological biomarkers and in vitro analysis in cell culture systems.
(§2) For the first set of in vitro experiments, total DNA was extracted from all samples collected throughout the study using the QIAamp DNA stool minikit (Qiagen, Crawley, United Kingdom) according to the manufacturer's instructions, apart from addition of a bead-beating step and increasing the lysis temperature to 95° C. as described previously (McCormack et al., 2018).
(§3) After DNA isolation, DNA was quantified using the Qubit High Sensitivity DNA assay (Thermo Fisher). Whole metagenome libraries were then prepared using the Illumina Nextera XT kit (Illumina) in accordance with the manufacturer's instructions, with the following modifications: Firstly, tagmentation time was increased to 7 min and secondly, following incorporation of indices and Ampure purification of the products, the samples were each individually sized by running on an Agilent High Sensitivity Chip (Agilent) and quantified using the Qubit High Sensitivity DNA assay (Thermo Fisher) in accordance with Teagasc Sequencing Platform SOPs. The samples were then pooled equimolarly and sequenced on the Illumina NextSeq 500 with a NextSeq 500/550 v2 high-output reagent kit (300 cycles). All sequencing was done in the Teagasc sequencing facility in accordance with standard Illumina sequencing protocols.
(§4) Delivered raw FASTQ sequence files were quality checked as follows: poor quality and duplicate read removal, as well as trimming was implemented using a combination of SAM and Picard tools. Taxonomy was assigned to the reads using the Kraken software and functional analysis was performed with Super focus.

In experiment [2] the test system is fecal microbial community. Put plainly: Microbiome composition by shotgun sequencing: alpha diversity (first set). In kind it is cell-based, human. To be noted: after 24 h fermentation, vs corresponding control. On the procedure:
as §1, §2, §3, §4

Experiment [3] has as its system fecal suspension from the selected donor. Put plainly: Intestinal batch fermentation, SCFA production (first set). Type of experiment: cell-based, human. To be noted: after 48 h fermentation, vs corresponding control. The method, then: In a first set of in vitro experiments at the start of intestinal batch fermentation incubation, all test ingredients were added from stock solutions to the modified nutritional medium, containing (g/l): 2.5 K2HPO4, 10.9 KH2PO4, 2 NaHCO3, 2 yeast extract, 2 peptone, 1 mucin, 0.5 cysteine, 2 Tween 80, 2 glucose, 2 starch, 2 cellobiose, 0.1 NaCl, 0.01 MgSO4·7H2O, 0.01 CaCl2·6H2O, 0.05 hemin, 0.5 bile salts.
The other compounds were prepared in ethanol: • Vitamin K1 (VK1), • MEG-3 0080 EE Oil (MEG-3 0080 EE), • MEG-3 4535 EE Oil (MEG-3 4535 EE), • MEG-3 8000 EE Oil (MEG-3 8000 EE).
as §1
Short chain fatty acids (SCFA) are an assessment of the microbial carbohydrate metabolism (acetate, propionate and butyrate) or protein metabolism (branched SCFA) and can be compared to typical fermentation patterns for normal GI microbiota. Samples for SCFA analysis were analyzed after 0, 6, 24 and 48 h of incubation for both set of in vitro experiments, above.
SCFA were extracted from the samples with diethyl ether, after the addition of 2-methyl hexanoic acid as an internal standard. Extracts were analysed using a GC-2014 gas chromatograph (Shimadzu's-Hertogenbosch, the Nether-lands), equipped with a capillary fatty acid-free EC-1000Econo-Cap column (dimensions: […]×0.53 mm, film thickness […]; Alltech, Laarne, Belgium), a flame ionization detector and a split injector. The injection volume was […] and the temperature profile was set from 110 to 160° C., with a temperature increase of 6° C. min-1. The carrier gas was nitrogen and the temperature of the injector and detector were […] and 220° C., respectively. The production of unbranched and branched SCFA was calculated by summing the molar concentrations of acetate, propionate, butyrate, valerate and caproate, and summing isobutyrate, isovalerate and isocaproate molar concentrations, respectively. The total SCFA production was defined as the sum of unbranched and branched SCFA.

The test system of experiment [4] is genes involved in Acetyl-CoA fermentation to Butyrate pathway. Kind of experiment: Shotgun sequencing functional analysis: butyrate pathway genes (first set). The settings on record: 0.2× dose; after 24 h fermentation; vs corresponding control. In kind it is cell-based, human. The method, then: as §1, §2, §3, §4
Experiment [5] has as its system HT29 cells. Put plainly: HT29 cell culture, quantification of immunological biomarkers. Type of experiment: cell-based. To be noted: effluent from 24 h fermentation, vs corresponding control. The method, then:
as §1, with “([…]), […]” for “(0 h fermentation) and after fermentation (48 h fermentation), sterilized by filtering through 0.22 μm filters and used for short chain fatty acids (SCFA), quantification of immunological biomarkers and in vitro analysis in”
For both sets of in vitro experiments, HT29 cells were obtained from American Type Culture Collection (Manassas, VA). Cells were cultured in DMEM supplemented with 10% fetal bovine serum (FBS), 50 units/ml penicillin, 50 μg/ml streptomycin, L-glutamine, and nonessential amino acids (Life Technologies Europe B.V., Zug, Switzerland). Cells were seeded into 12-well plates at 8×10^5 cells per well and used after 2 days of preculture. They were starved in DMEM containing 0.25% FBS for 18 h before treatment. Cells were treated for 24 hours with TNF-α at 100 ng/mL or fermentation supernatants which were sterile filtered and diluted 1:20 in DMEM containing 0.25% FBS. All treatments were done in triplicate. Consequently, cytokines, chemokines and interleukins were quantified in HT29 supernatants using the Luminex Technology (LiquiChip Workstation IS 200, Qiagen, Hilden, Germany) with Bio-Plex Pro Human Cytokine Panel kits (Bio-Rad, Hercules, CA) or with Luminex Screening Assay kits (R&D Systems, Inc., Minneapolis, MN), following the manufacturer's instructions. The data were acquired with the Luminex IS 2.3 software and evaluated with the LiquiChip Analyser software (Qiagen, Hilden, Germany).

Experiment [6] deals with Co-cultures of Caco-2 and HT29-MTX-E12 cells. Put plainly: Barrier integrity, leaky gut model, apical stressor Rhamnolipids. Type of experiment: cell-based. The settings on record: 48 h minus 0 h fermentation samples, vs corresponding control.

In the case of `Nc1nc2ncc(CNc3ccc(C(=O)N[C@@H](CCC(=O)O)C(=O)O)cc3)nc2c(=O)[nH]1` [folic acid, Folic acid], the Bifidobacterium relative abundance entry in experiment [1] (0.2× dose) and in experiment [1] (1× dose) was “increase Bifidobacterium relative abundance” in each case. The “microbiome alpha diversity (Shannon diversity index)” value in experiment [2] (0.2× dose) and in experiment [2] (1× dose) was “increase microbiome diversity” each time. For the same molecule, the acetate production result in experiment [3] (0.2× dose), in experiment [3] (1× dose) and in experiment [3] (5× dose) was “increase acetate production” throughout. The butyrate production entry in experiment [3] (0.2× dose), in experiment [3] (1× dose) and in experiment [3] (5× dose) was “increase butyrate production” in each case. Besides, the propionate production result in experiment [3] (0.2× dose), in experiment [3] (1× dose) and in experiment [3] (5× dose) was “increase propionate production” throughout. Moreover, the “total SCFAs production” value in experiment [3] (0.2× dose), in experiment [3] (1× dose) and in experiment [3] (5× dose) was “increase total SCFAs production” in each case. For the same molecule, in experiment [4], the “relative abundance of genes involved in Acetyl-CoA fermentation to Butyrate pathway” value is reported as “increase relative abundance”. Also, the “IL-8 production by HT29 cells” value in experiment [5] (0.2× dose) and in experiment [5] (5× dose) was “increase IL-8 production” each time. Also, the “TEER, apical induction of leaky gut cellular model” value in experiment [6] (0.2× dose) and in experiment [6] (1× dose) was “increase TEER” throughout.
